From ChEMBL document CHEMBL1140197, “Synthesis, characterization and antibacterial activity of cobalt(III) complexes with pyridine-amide ligands” (Eur J Med Chem, 2008)

Assays:
Shigella flexneri = test: Antibacterial activity against Shigella flexneri MTCC 1457 after 16 hrs by microbroth dilution method; type: functional, organism-based
Proteus vulgaris = test: Antibacterial activity against clinical isolate resistant Proteus vulgaris after 16 hrs by microbroth dilution method; type: functional, organism-based
Raoultella planticola = test: Antibacterial activity against Klebsiella planticola MTCC 2272 after 16 hrs by microbroth dilution method; type: functional, organism-based
Escherichia coli = test: Antibacterial activity against clinical isolate resistant Escherichia coli after 16 hrs by microbroth dilution method; type: functional, organism-based
Pseudomonas aeruginosa [1] = test: Antibacterial activity against Pseudomonas aeruginosa MTCC 1688 after 16 hrs by microbroth dilution method; type: functional, organism-based
Pseudomonas aeruginosa [2] = test: Antibacterial activity against clinical isolate resistant Pseudomonas aeruginosa after 16 hrs by microbroth dilution method; type: functional, organism-based
[3] = Cytotoxicity against HEK cells assessed as cell viability at 0.73 to 1500 ug/mL after 48 hrs by MTT assay; type: cell-based; settings: human, hek293, 48 h

Row | Sequence | MIC (Shigella flexneri) [µg/mL] | MIC (Proteus vulgaris) [µg/mL] | MIC (Raoultella planticola) [µg/mL] | MIC (Escherichia coli) [µg/mL] | MIC (Pseudomonas aeruginosa [1]) [µg/mL] | MIC (Pseudomonas aeruginosa [2]) [µg/mL] | Activity [3]
1 | GENTAMICIN [listing 1 of 2 here] | 1.46 | 187 | 1.46 | 11 | 1.46 | 5.5 | –
2 | GENTAMICIN [listing 2 of 2 here] | – | – | – | – | – | – | Active
